# Measurements from patent US7595074B2, “Polymeric antioxidants” (University of Massachusetts Lowell, priority 2002, dated 2009).
# Like-named read-outs stand apart in the source and are kept apart here.
# Experiments:
# [1] = bleaching of a beta-carotene/linoleate model system (antioxidant activity); format: biochemical; design: % Antioxidant Activity of Monomer / % Antioxidant Activity: concentration or dose not given beside the values; conditions: for % Antioxidant Activity: compounds of each step of the Example 8 scheme, procedure of Food Chemistry 73:285-290 (2001)
# Procedure: The antioxidant activity of monomers and enzymatically-prepared polymeric antioxidants was compared by measuring the bleaching of a beta-carotene system. In the model system, beta-carotene undergoes rapid discoloration in the absence of an antioxidant. The assay and measurements were conducted according to the procedure described in Jayaprakasha, G. K., et al. Food Chemistry 73: 285-290 (2001) and Hidalgo, M. E., et al. Phytochemistry 37: 1585-1587 (1994), the contents of which are incorporated herein by reference. Briefly, beta-carotene (0.2 mg), linoleic acid (20 mg), and 200 mg of Tween-40 (polyoxyethylene sorbitan monopalmitate) were dissolved in 0.5 mL of chloroform. The chloroform was removed under vacuum and the resulting mixture was immediately diluted with 10 mL of distilled water and mixed well for 1-2 minutes. The resulting emulsion was further made up to 50 mL with oxygenated water. Aliquots (4 mL) of the emulsion were mixed with 0.2 mL of test sample (monomer or polymer) in dimethylformamide (DMF), so that there were 100 ppm of monomer or polymer present in the aliquot. A control was prepared by mixing 0.2 mL of DMF with 4 mL of the above emulsion. The samples were incubated at 50° C. The absorbance of all samples at 470 nm was taken initially (t=0) and continued up to 180 minutes at 15 minute intervals. Antioxidant activity is calculated based on the formula: Antioxidant Activity=100(1−(Ao−At)/(A^1o−A^1t)), • Ao=absorbance of the test sample at zero time, • A^1o=absorbance of the control at zero time, • At=absorbance of the test sample at time t (180 min), and • A^1t=absorbance of the control at time t (180 min).
# The antioxidant activity of several other antioxidant monomer/polymer pairs were determined by the procedure described in Example 3.
# The antioxidant activity of compounds formed in each step of the scheme shown above were measured according to the procedure published in Food Chemistry 73:285-290 (2001).
# [2] = thermogravimetric analysis (TGA); format: physicochemical; conditions: thermal stability, FIG. 4
# [3] = oil stability index of cooking oil heated to frying temperature
# Procedure: (§1) The oils were heated to frying temperature (190° C.) and their oil stability index was measured. The oil stability index (American Oil Chemists' Society Cd 126-92) measures the amount of time before the oil begins to rapidly oxidize. A greater length of time indicates an oil with a greater antioxidant capacity, which likely corresponds to a longer potential shelf life.
# [4] = as above; remark: listed apart in the source
# Procedure: as §1
# [5] = quoted for comparison; cited from earlier work
# [6] = system: Sprague-Dawley albino rats; conditions: rat, in vivo
# Procedure: A study was conducted based upon the standards of OECD Guidelines for Testing of Chemicals, OECD 423. Ten Sprague-Dawley albino rats were administered with 2000 mg/kg body weight poly(TBHQ) as a single dose via gastric gavage. After administration, the animals were returned to their cages and observed for signs of toxicity for up to 14 days. Body weights were determined prior to dosing and on the day of death or prior to terminal sacrifice. A second study was performed using three female rats with 500 mg/kg body weight of poly(TBHQ).
# [7] = monomer, 100 ppm, 50° C., 180 min, Antioxidant Activity=100(1−(Ao−At)/(A1o−A1t))
# [8] = monomer, procedure of Example 3
molecule,measurement,setting,value
Oc1ccccc1 [phenol],% Antioxidant Activity of Monomer,[1],2.1%
same,Monomer Activity,[1],2.1
COc1ccc(O)cc1C(C)(C)C [2-tert-butyl-4-hydroxyanisole],temperature up to which there was about 15% mass loss (TGA),[2],about 125 °C
same,Monomer Activity,[1]; [7],44.24
"CC(C)(C)c1cc(O)ccc1O [TBHQ, tert-butyl-hydroquinone]",% Antioxidant Activity,[1],6.72%
same,oil stability index (time before the oil begins to rapidly oxidize),"[3]; Corn oil, 190° C., equal concentration of phenol moieties",6.6 h
same,oil stability index (time before the oil begins to rapidly oxidize),"[4]; Canola oil, 190° C., equal concentration of phenol moieties",10.8 h
[Cl-].[Na+] [sodium chloride],oral LD50,[5],about 3000 mg/kg
"CC(=O)Oc1ccc(O)cc1C(C)(C)C [c, 4-acetyloxy-3-tert-butylphenol]",% Antioxidant Activity,[1],7.9%
CC(=O)Oc1ccc(OC(C)=O)c(C(C)(C)C)c1 [b],% Antioxidant Activity,[1],2.45%
OCc1cccc(O)c1 [3-hydroxybenzyl alcohol],Monomer Activity,[1]; [7],1.0
same,% Antioxidant Activity of Monomer,[1]; [8],1.0%
Poly(tert-butyl-hydroquinone) [Poly(TBHQ)],oil stability index (time before the oil begins to rapidly oxidize),[3],9.0 h
same,female rats that died prior to completion of the study,[6],Three of the five
same,gross necropsy of surviving animals,[6],None of the surviving animals showed abnormal signs
same,necropsy finding in animals that did not survive 14 days,[6],the intestines were inflamed
same,overall toxicity,[6],relatively low toxicity to rats
same,survival,[6],survived the duration of the study
same,oral LD50,[6]; po,500 to 2000 mg/kg
same,oil stability index (time before the oil begins to rapidly oxidize),[4],19.2 h
Oc1ccc(N=Nc2ccccc2)cc1 [4-azophenylphenol],Monomer Activity,[1]; [7],5.4
same,% Antioxidant Activity of Monomer,[1]; [8],5.4%
